{"source": "patent US7842671B1", "about": "“Peptidomimetic inhibitors of STAT activity and uses thereof” (University of South Florida, priority 2003, dated 2010)", "key": {"NIH3T3/v-Ras [1]": {"test_system": "NIH3T3/v-Ras", "assay": "Soft-agar growth of v-Ras-transformed fibroblasts", "type": "cell-based, mouse", "conditions": "1 mM every 2-3 days", "experimental": "(§1) Cell proliferation, soft-agar growth and Apo-BrdU labeling studies. Proliferating fibroblasts and human tumor cells were counted by phase-contrast microscopy for viable cells (using tyrpan blue exclusion). Colony formation assays in six-well dishes and quantification of colonies by iodonitrotetrazolium violet have been previously described (Turkson, J. et al. (1999)). Treatment of cells with inhibitors was initiated 1 day after seeding cells by adding 75 μl of medium with or without inhibitor, and repeated every two to three days. Apoptosis was measured by Apo-BrdU labeling and following the supplier's (PharMingen; San Diego, Calif.) instructions.\nPrevious studies with PY*LKTK-MTS (SEQ ID NO. 1) (Turkson, J. et al., 2001)) confirmed that inhibition of constitutive Stat3 activation blocks Src transformation (Turkson, J. et al. (1998); Turkson, J. et al., (1999); Bromberg, J. R. et al. (1998))."}, "[2]": {"test_system": "Stat3-independent luciferase reporter, pRLSRE", "type": "cell-based", "conditions": "1 mM, Src-transformed mouse cells", "source_text": "(§2) Plasmids. The Stat3 reporter, pLucTKS3, driving expression of the firefly luciferase gene and the Stat3-independent plasmid, pRLSRE, containing two copies of the serum response element (SRE) from the c-fos promoter (Turkson, J. et al. (1998); Zhang, Y. et al. (2000)) that drives renilla luciferase gene (Promega; Madison, Wis.) expression, have been previously described (Turkson, J. et al. (2001); Turkson, J. et al. (1999)).\n(§3) Cytosolic extract preparation and luciferase assays. Cytosolic extract preparation from fibroblasts and luciferase assays were previously described (Turkson, J. et al. (1998); Turkson, J. et al. (1999)). Briefly, after two washes with PBS and equilibration for 5 min with 0.5 ml PBS-0.5 mM EDTA, cells were scraped off the dishes and the cell pellet was obtained by centrifugation (4,500×g, 2 min, 4° C.). Cells were resuspended in 0.4 ml of low-salt HEPES buffer (10 mM HEPES (pH 7.8), 10 mM KCl, 0.1 mM EGTA, 0.1 mM EDTA, 1 mM phenylmethylsulfonyl fluoride, and 1 mM dithiothreitol) for 15 min, lysed by the addition of 20 μl of 10% Nonidet P-40 (NP-40), and centrifuged (10,000×g, 30 s, 4° C.) to obtain the cytosolic supernatant, which was used for luciferase assays (Promega) measured with a luminometer. […]"}, "[3]": {"test_system": "Stat3-dependent luciferase reporter, pLucTKS3", "type": "cell-based", "conditions": "1 mM, Src-transformed mouse cells", "source_text": "as §2, §3"}, "Stat3 [4]": {"biological_target": "T1, Stat3 (Homo sapiens, UniProt P40763)", "T1 construct": "endogenous in cells; host or cells: A549, MDA-MB-231, MDA-MB-435, MDA-MB-468", "T1 sequence (P40763 whole entry)": "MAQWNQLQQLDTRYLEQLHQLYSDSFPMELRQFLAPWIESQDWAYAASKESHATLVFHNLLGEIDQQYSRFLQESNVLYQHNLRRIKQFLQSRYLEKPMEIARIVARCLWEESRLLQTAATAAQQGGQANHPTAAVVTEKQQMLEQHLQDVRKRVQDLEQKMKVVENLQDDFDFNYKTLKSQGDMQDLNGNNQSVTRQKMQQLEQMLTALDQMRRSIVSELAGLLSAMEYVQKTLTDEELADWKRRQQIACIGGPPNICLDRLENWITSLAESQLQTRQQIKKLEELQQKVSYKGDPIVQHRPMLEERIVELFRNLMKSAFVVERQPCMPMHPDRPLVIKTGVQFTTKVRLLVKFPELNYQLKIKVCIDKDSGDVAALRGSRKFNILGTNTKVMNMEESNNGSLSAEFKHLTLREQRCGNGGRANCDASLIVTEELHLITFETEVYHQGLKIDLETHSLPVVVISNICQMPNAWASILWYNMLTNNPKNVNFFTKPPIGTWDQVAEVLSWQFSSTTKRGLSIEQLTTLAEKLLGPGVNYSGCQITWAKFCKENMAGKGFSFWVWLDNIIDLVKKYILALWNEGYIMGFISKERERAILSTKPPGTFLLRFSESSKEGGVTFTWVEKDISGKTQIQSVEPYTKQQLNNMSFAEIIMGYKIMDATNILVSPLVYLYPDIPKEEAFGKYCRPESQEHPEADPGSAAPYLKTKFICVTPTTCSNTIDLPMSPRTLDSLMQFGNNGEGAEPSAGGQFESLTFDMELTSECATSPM", "type": "cell-based", "experimental": "(§4) Nuclear extract preparation and gel shift assays. Nuclear extracts were prepared from cell lines and used for electrophoretic mobility shift assay (EMSA) as previously described (Garcia, R. et al. (1997); Yu, C. L. et al. (1995); Turkson, J. et al. (1998)). In some cases, cells were pre-treated with peptidomimetics for the indicated times (12-48 h) prior to harvesting for nuclear extract preparation. In other studies, nuclear extracts were pre-incubated with peptidomimetics for 30 min at room temperature prior to incubation with radiolabeled probe. The ^32P-radiolabeled oligonucleotide probes used are hSIE (high affinity sis-inducible element, m67 variant, 5′-[…]-3′) (SEQ ID NO. 3) that binds both Stat1 and Stat3 (Garcia, R. et al. (1997); Wagner B. J. et al. (1990)) and MGFe (mammary gland factor element from the bovine β-casein gene promoter, 5′-[…]-3′) (SEQ ID NO. 4) that binds Stat1 and Stat5 (Gouilleux, F. et al. (1995); Seidel, H. M. et al. (1995))."}, "Stat3 [5]": {"biological_target": "T2, Stat3 (Mus musculus, UniProt P42227)", "T2 sequence (P42227 whole entry)": "as the sequence (P40763 whole entry) above, with E760D counted along it", "type": "cell-based", "parameters": "nuclear extracts prepared from v-Src-transformed NIH3T3/v-Src; endogenous in cells; host or cells: NIH3T3/v-Src", "experimental": "as §4"}, "Stat3 [6]": {"biological_target": "T2, Stat3", "type": "cell-based", "parameters": "nuclear extracts (prepared from epidermal growth factor (EGF)-stimulated fibroblasts); endogenous in cells; host or cells: NIH3T3 fibroblasts stimulated with EGF"}, "NIH3T3/v-Ras [7]": {"test_system": "NIH3T3/v-Ras", "type": "cell-based, mouse", "conditions": "1 mM", "experimental": "as §1\n(§5) Stat3 has an essential role in cell proliferation, and constitutively-active Stat3 is required for growth of transformed and tumor cells that harbor aberrant Stat3 signaling. Studies were performed to determine the effects of the peptidomimetic-mediated inhibition of Stat3 on cell proliferation using trypan blue exclusion for viable cell counts."}, "NIH3T3/v-Src": {"test_system": "NIH3T3/v-Src", "type": "cell-based, mouse", "conditions": "1 mM, four days", "experimental": "as §1, §5"}, "NIH3T3": {"test_system": "NIH3T3", "type": "cell-based, mouse", "conditions": "1 mM, normal NIH3T3 cells", "experimental": "as §1, §5"}, "Stat3 [8]": {"biological_target": "T2, Stat3", "assay": "EMSA of Stat3 DNA-binding activity in nuclear extracts (hSIE probe)", "type": "biochemical", "parameters": "nuclear extracts (prepared from epidermal growth factor (EGF)-stimulated fibroblasts); endogenous in cells; host or cells: NIH3T3 fibroblasts stimulated with EGF", "conditions": "EMSA", "experimental": "as §4\nPeptidomimetics of the invention can be prepared by replacing prolyl or alanyl residue at the peptide bond that is N-terminal to the phosphotyrosine (Y*) of a peptide such as PY*L or AY*L with an organic substituent such as an optionally substituted aryl or heteroaryl group. The activities of STATs were measured in nuclear extracts (prepared from epidermal growth factor (EGF)-stimulated fibroblasts) as DNA-bound protein complexes by electrophoretic mobility shift assay (EMSA).\nFrom densitometric analysis of band intensities, the IC50 values (concentration of peptidomimetic at which DNA-binding activity is reduced by 50%), which are reported in Table 3, were determined."}}, "data": [{"smiles": "CC(C)CC(NC(=O)C(Cc1ccc(OP(=O)(O)O)cc1)NC(=O)c1ccc(C#N)cc1)C(=O)O", "note": "(stereo not drawn) [ISS 610]", "values": [{"measurement": "soft-agar growth", "setting": "NIH3T3/v-Ras [1]", "value": "no effect"}, {"measurement": "induction of the Stat3-independent luciferase reporter pRLSRE", "setting": "[2]", "value": "no effect"}, {"measurement": "transcriptional induction of the Stat3-dependent luciferase reporter pLucTKS3", "setting": "[3]", "value": "significant suppression"}, {"measurement": "Stat3 activation in breast carcinoma cells (EMSA)", "setting": "Stat3 [4]", "value": "time-dependent reduction of Stat3 activation"}, {"measurement": "Stat3 activation in human non-small cell lung carcinoma cells (EMSA)", "setting": "Stat3 [4]", "value": "time-dependent reduction of Stat3 activation"}, {"measurement": "Stat3 activation in Src-transformed fibroblasts (EMSA)", "setting": "Stat3 [5]", "value": "time-dependent reduction of Stat3 activation"}, {"measurement": "ligand (EGF)-induced STAT activation", "setting": "Stat3 [6]", "value": "preferential inhibition of activation of Stat3"}, {"measurement": "cell proliferation", "setting": "NIH3T3/v-Ras [7]", "value": "no effect on cell proliferation"}, {"measurement": "cell proliferation", "setting": "NIH3T3/v-Src", "value": "significantly suppresses proliferation"}, {"measurement": "cell proliferation", "setting": "NIH3T3", "value": "no effect on cell proliferation"}, {"measurement": "increase in potency in inhibiting Stat3 DNA-binding activity compared to tripeptides PY*L or AY*L", "setting": "Stat3 [8]; in vitro", "value": 5, "unit": "fold"}, {"measurement": "effect on Stat3 DNA-binding activity in vitro (in words)", "setting": "Stat3 [8]; nuclear extracts", "value": "potent disrupters of active Stat3"}]}]}
